Measurements as given in patent publication EP0684822B1, “CARBOCYCLIC DEOXYGUANOSINE ANALOGS FOR THE TREATMENT OF VIRAL INFECTIONS” (SOUTHERN RESEARCH INSTITUTE, priority 1993, dated 1994).
Converted amounts (≈) assume the structure as drawn. “And” between values parts separate entries of the source, which are not always exact repeats. Equal entries are not always repeated.

Tests used:
HSV-TK extract = target: T1, HSV-TK extract (Human herpesvirus 1, UniProt P0DTH5); assay: Phosphorylated products formed by HSV-TK extract, SAX HPLC; format: biochemical, HSV-1; details: for DPM di / DPM mono / DPM nucleoside / DPM total / DPM tri: 10 µM [3H] compound, 2 hours; for major phosphorylated derivative: 50 µM, 60 minutes at 37°C, Fig. 3
T1 construct: HSV thymidine kinase (HSV TK) was isolated from HELA (BU25) cells infected with the SW148 strain of HSV-1; made in house; host or cells: HeLa (BU25) thymidine-kinase-deficient cells infected with HSV-1 strain S148/SW148
T1 sequence (P0DTH5 whole entry): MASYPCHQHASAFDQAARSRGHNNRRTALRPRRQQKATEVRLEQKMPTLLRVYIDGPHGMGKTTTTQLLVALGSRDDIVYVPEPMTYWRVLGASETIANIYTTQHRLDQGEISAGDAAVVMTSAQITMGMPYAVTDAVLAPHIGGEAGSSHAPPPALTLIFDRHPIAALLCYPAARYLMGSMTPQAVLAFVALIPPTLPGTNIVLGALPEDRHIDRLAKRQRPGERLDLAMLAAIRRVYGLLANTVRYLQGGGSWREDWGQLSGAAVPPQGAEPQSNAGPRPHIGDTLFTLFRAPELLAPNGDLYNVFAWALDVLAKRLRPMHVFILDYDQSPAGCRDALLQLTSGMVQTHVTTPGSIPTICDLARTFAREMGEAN
Experimental: HSV thymidine kinase activity was measured in 200 µl volumes containing HSV-TK extract obtained as described previously (Belzarini et al., supra), 5.0 mM ATP, 5 mM MgCl2, 9 mM potassium fluoride, 11.2 µg phosphoenol pyruvate, 5 µg of pyruvate kinase, 10 mM β-mercaptoethanol and either 50 µM [3H]-D-, L, or no drug for 60 minutes at 37°C. The reaction was stopped with perchloric acid (PCA), neutralized with potassium bicarbonate, and the reaction products were analyzed by SAX HPLC. The UV absorption spectra of selected peaks were determined with a rapid spectral detector (LKB, Gaithersburg, MD). […] The amount of monophosphate derived from L-2'CdG was about the same as the amount of triphosphate derived from D-2'CdG, and confirmed the results of the disk assay.
HSV extracts were also incubated with 10 µM of either [^3H]-D- or L-2'Cdg, as described above, to measure the metabolism of these entantiomers. After 2 hours the reaction was stopped with perchloric acid (PCA), neutralized with potassium bicarbonate, and the acid-soluble metabolites were separated using SAX HPLC as described above. The results are summarized below.: TABLE 3

HSV-1 (strain 377, TK+) = assay: Antiviral activity against HSV-1; format: cell-based; details: for VR / EC50: HSV-1, range of tests; for EC50: Human alphaherpesvirus 1, read-out: Mic50
Experimental: (§1) D-2'-CdG and L-2'-CdG were tested, alongside D,L-2'-CdG, against both HSV-1 (strain 377, TK+; obtained from Dr. Earl Kern, University of Alabama) and HSV-2 (strain MS, TK+; also obtained from Dr. Earl Kern). In these tests (Table 5), Ara-A and acyclovir (ACV) were the positive control drugs. In four tests vs. HSV-1, the antiviral activity (VR) and potency (MIC50) of D-2'-CdG were approximately the same as those of racemic 2-CdG. L-2'-CdG was only modestly active.

HSV-2 (strain MS, TK+) = assay: Antiviral activity against HSV-2; format: cell-based; details: HSV-2
Experimental: as §1
These compounds were tested against HSV-2(TK^+). The VR of ACV was somewhat higher than the VR values of D-2'-CdG and D,L-2'-CdG, but the values of MIC50 of the two forms of 2'-CdG were lower. In addition, experiments comparing the antiviral activity D-2'-CdG with acyclovir against HSV-1 in human foreskin fibroblasts have shown an even greater potency, in favor of D-2'-CdG.

HBV = HBV DNA production and replication in 2.2.15 cell cultures; format: cell-based, Hepatitis B virus (HBV); details: for anti-HBV activity (in words): 50 ng/ml to 5 ug/ml, 2.2.15 cells; for INTRACELLULAR HBV DNA INTEG. / INTRACELLULAR HBV DNA MONO. / INTRACELLULAR HBV DNA RI: 24 hours following 10th day of treatment; for HBV DNA IN CULTURE MEDIUM DAY 0: day 0 of treatment
Experimental: 2'-CdG was tested at three concentrations (50 ng/ml, 500 ng/ml, and 5 ug/ml) against the HBV-producing, human liver cell line, 2.2.15 (Sells et al., J. Virol. 62:2836, 1989). A racemic (D,L) preparation, as well as the purified D and L isomers were tested. For these analyses compounds were tested in duplicate at all concentrations. Ara-AMP and ddG (2'3'-dideoxyguanosine) were used as HBV inhibitory control compounds. […] The nucleoside analog, ddG was used as an additional control compound since ddG has activity against duck hepatitis B virus in chronically infected Peking ducks (Lee et al., Antimicrob. Agents Chemother. 33:336, 1989) and 2'-CdG is also a deoxyguanosine analog.
2.2.15 cells were seeded in 6 well culture plates and grown to confluence over a 10 day period in medium with 5% FBS. Test compounds were then added daily for a continuous 10 day period in medium with 1% dialyzed FBS. […] Compounds were tested, in duplicate cultures, at 3 concentrations covering a 100-fold range. Culture medium (changed daily during the treatment period) was collected and stored for analysis of extracellular (virion) HBV DNA from days 0, 3, 6, and 10 of the treatment period. This allowed for an analysis of the level of HBV virion production during discrete 24 hour intervals and reduced the potential for the buildup of toxic metabolites derived from the test compounds. Treated cells were lysed following the 10th day of treatment for the analysis of intracellular HBV genomic forms. HBV DNA was analyzed in a quantitative manner for (i) overall levels (both extracellular and intracellular DNA) and (ii) the relative rate of HBV replication (intracellular DNA only).
HBV DNA levels were measured by comparison to known amounts of HBV DNA standards applied to every nitrocellulose filter (gel or slot blot) using an AMBIS Beta Scanner. Standard curves, generated by multiple analyses, were used to correlate CPM measurements with relative levels of target HBV DNA. The levels of HBV DNA in each of three classes of intracellular viral genomic forms were individually quantitated: integrated HBV DNA, episomal monomeric genomes and HBV DNA replication intermediates (RI). Integrated HBV DNA was used to normalize the relative amounts of DNA in each lane because the levels of this class of HBV DNA would be expected to remain constant on a per cell basis. The levels of the monomeric HBV genomes and RI were used as an indicator of the relative level of HBV replication.

## Nc1nc2c(ncn2[C@H]2C[C@@H](CO)[C@H](O)C2)c(=O)[nH]1 [L-2'-CdG, [1S,3R,4S-(1α,3β,4α)]-L-2-Amino-1,9-dihydro-9-[3-hydroxy-4-(hydroxymethyl)cyclopentyl]-6H-purin-6-one]
HSV-TK extract
  DPM di: 2050 DPM
  DPM mono: 115000 DPM
  DPM nucleoside: 40944 DPM
  DPM total: 158000 DPM
  DPM tri: 410 DPM
  major phosphorylated derivative: primarily to the monophosphate form
HSV-1 (strain 377, TK+)
  VR: 0.8-2.4
  EC50: 39 to 257 µg/mL (≈ 147 to 969 µM)
HSV-2 (strain MS, TK+)
  VR: 0
HBV
  anti-HBV activity (in words): did not exhibit any significant anti-HBV activity
HBV; 50ng/ml, listed as L, 2-CdG
  INTRACELLULAR HBV DNA INTEG.: 1.3 PG/UG CELL DNA and 0.8 PG/UG CELL DNA
  INTRACELLULAR HBV DNA MONO.: 1.4 PG/UG CELL DNA and 1.1 PG/UG CELL DNA
  INTRACELLULAR HBV DNA RI: 90 PG/UG CELL DNA and 76 PG/UG CELL DNA
  HBV DNA IN CULTURE MEDIUM DAY 0: 48 pg/mL and 67 pg/mL
  HBV DNA IN CULTURE MEDIUM DAY 3: 47 pg/mL and 83 pg/mL
  HBV DNA IN CULTURE MEDIUM DAY 6: 90 pg/mL and 63 pg/mL
  HBV DNA IN CULTURE MEDIUM DAY 10: 90 pg/mL and 61 pg/mL
HBV; 500ng/ml
  INTRACELLULAR HBV DNA MONO.: 1.9 PG/UG CELL DNA
HBV; 500ng/ml, listed as L, 2-CdG
  INTRACELLULAR HBV DNA INTEG.: 1.4 PG/UG CELL DNA and 1.5 PG/UG CELL DNA
  INTRACELLULAR HBV DNA RI: 82 PG/UG CELL DNA and 99 PG/UG CELL DNA
  HBV DNA IN CULTURE MEDIUM DAY 0: 90 pg/mL and 110 pg/mL
  HBV DNA IN CULTURE MEDIUM DAY 3: 63 pg/mL and 83 pg/mL
  HBV DNA IN CULTURE MEDIUM DAY 6: 78 pg/mL and 56 pg/mL
  HBV DNA IN CULTURE MEDIUM DAY 10: 97 pg/mL and 91 pg/mL
HBV; 5 ug/ml, listed as L, 2-CdG
  INTRACELLULAR HBV DNA INTEG.: 1.5 PG/UG CELL DNA and 0.9 PG/UG CELL DNA
  INTRACELLULAR HBV DNA MONO.: 2.0 PG/UG CELL DNA and 1.1 PG/UG CELL DNA
  INTRACELLULAR HBV DNA RI: 97 PG/UG CELL DNA and 86 PG/UG CELL DNA
  HBV DNA IN CULTURE MEDIUM DAY 0: 50 pg/mL and 88 pg/mL
  HBV DNA IN CULTURE MEDIUM DAY 3: 67 pg/mL and 110 pg/mL
  HBV DNA IN CULTURE MEDIUM DAY 6: 77 pg/mL and 120 pg/mL
  HBV DNA IN CULTURE MEDIUM DAY 10: 90 pg/mL and 120 pg/mL

## Nc1nc2c(ncn2[C@@H]2C[C@H](CO)[C@@H](O)C2)c(=O)[nH]1 [D-2'-CdG, [1R,3S,4R-(1α,3β,4α)]-D-2-Amino-1,9-dihydro-9-[3-hydroxy-4-(hydroxymethyl)cyclopentyl]-6H-purin-6-one]
HSV-TK extract
  DPM di: 2427 DPM
  DPM mono: 2138 DPM
  DPM nucleoside: 38555 DPM
  DPM total: 128000 DPM
  DPM tri: 85073 DPM
  major phosphorylated derivative: the triphosphate
HSV-1 (strain 377, TK+)
  VR: 4.8-6.3
  EC50: 0.1 to 0.3 µg/mL (≈ 0.377 to 1.13 µM)
HSV-1 (strain 377, TK+); more potent than ACV
  potency relative to ACV: 5-10 times
HSV-2 (strain MS, TK+)
  VR: 3.8
HSV-2 (strain MS, TK+); Human alphaherpesvirus 2, read-out: Mic50
  EC50: 0.7 µg/mL (≈ 2.64 µM)
HBV
  anti-HBV activity (in words): as active an inhibitor of HBV replication as the racemic mixture
HBV; 50ng/ml, listed as D, 2CdG
  INTRACELLULAR HBV DNA INTEG.: 1.6 PG/UG CELL DNA and 1.3 PG/UG CELL DNA
  INTRACELLULAR HBV DNA MONO.: 1.3 PG/UG CELL DNA and 2.1 PG/UG CELL DNA
  INTRACELLULAR HBV DNA RI: 16 PG/UG CELL DNA and 20 PG/UG CELL DNA
  HBV DNA IN CULTURE MEDIUM DAY 0: 100 pg/mL and 77 pg/mL
  HBV DNA IN CULTURE MEDIUM DAY 3: 110 pg/mL and 70 pg/mL
  HBV DNA IN CULTURE MEDIUM DAY 6: 38 pg/mL and 40 pg/mL
HBV; 500ng/ml
  INTRACELLULAR HBV DNA RI: 1 PG/UG CELL DNA
HBV; 500ng/ml, listed as D, 2-CdG
  INTRACELLULAR HBV DNA INTEG.: 1.0 PG/UG CELL DNA and 1.6 PG/UG CELL DNA
  INTRACELLULAR HBV DNA MONO.: 1.9 PG/UG CELL DNA and 1.8 PG/UG CELL DNA
  HBV DNA IN CULTURE MEDIUM DAY 0: 80 pg/mL and 90 pg/mL
  HBV DNA IN CULTURE MEDIUM DAY 3: 36 pg/mL and 43 pg/mL
  HBV DNA IN CULTURE MEDIUM DAY 6: 15 pg/mL and 14 pg/mL
HBV; 5 ug/ml
  INTRACELLULAR HBV DNA MONO.: 2.0 PG/UG CELL DNA
  HBV DNA IN CULTURE MEDIUM DAY 10: 0 pg/mL
HBV; 5 ug/ml, listed as D, 2-CdG
  HBV DNA IN CULTURE MEDIUM DAY 0: 100 pg/mL and 120 pg/mL
  HBV DNA IN CULTURE MEDIUM DAY 3: 18 pg/mL and 21 pg/mL
  HBV DNA IN CULTURE MEDIUM DAY 6: 3 pg/mL and 6 pg/mL
